Source: patent publication US20180251431A1 (VERTEX PHARMACEUTICALS INCORPORATED, priority 2016, published 2018)

Tested on: wild-type (WT) rats
Assay: Reduction of blood C26:0 LPC in vivo in wild-type rats
Parameters: species or system rat
Conditions: blood (DBS)
Procedure: A LC-MS/MS method of analyzing Lysophosphatidylcholine (LPC) in whole blood (dried blood spot card, DBS) and brain tissue samples was developed for measuring the abundance of saturated C16, C18, C20, C22, C24 and C26 LPC in DBS and brain samples. Whole blood was collected with Whatman DMPK-C DBS card at an approximate volume of 20 μL at each time point. Brain tissue was collected at the end point of the study. Samples were prepared and LC-MS/MS analysis was performed as described below.
For DBS bioanalysis, the DBS card was punched at 3 mm in diameter using a semi-automated DBS card puncher. To each punched spot 200 μL of pure methanol was added. The vial was vortexed at low speed for 20 minutes and centrifuged at 4000 rpm for 20 minutes. The clear supernatant was injected onto LC-MS/MS for analysis. For brain tissue bioanalysis, brain tissue was collected in a tared homogenization tube pre-filled with metal bead and weighted. To each sample vial two parts weight of methanol was added. The sample was homogenized using Precellys-24 at 5000 rpm for 20 seconds with one cycle. A 100 mg aliquot of homogenate was used for analysis. To each sample vial 400 μL of pure methanol was added. The vial was vortexed at low speed for 20 minutes and centrifuged at 4000 rpm for 20 minutes. […]
The supernatant obtained from each sample was injected into a LC-MS/MS system (Agilent Technologies, Santa Clara, Calif. and Applied Biosystems, Framingham, Mass.) for analysis. […] LPCs were detected by an AB Sciex API-6500 triple quadrupole MS with electrospray ionization in the mode of multiple reaction monitoring. Ions of Q1 were monitored at m/z of 496.6, 524.6, 552.6, 580.6, 608.6 and 636.6 for LPC 16:0, LPC 18:0, LPC 20:0, LPC 22:0, LPC 24:0 and LPC 26:0, respectively. […] C16:0 LPC levels were expressed as a concentration. […]
Compound 87 was dosed PO (orally by oral gavage) QD at 30, 100, and 300 mg/kg in wild-type (WT) rats (n=5) for 7 days (FIG. 2C). […] DBS cards were stored at 4° C. until they could be analyzed for LPC. DBS samples were prepared and analyzed using LC-MS/MS as described above.

O=C(Nc1ccn(-c2ccnc(F)c2)n1)C1(c2ccccc2F)CC1 [Compound 87, 1-(2-fluorophenyl)-N-[1-(2-fluoro-4-pyridyl)pyrazol-3-yl]cyclopropanecarboxamide]
reduction in C26:0 LPC levels compared to vehicle controls (30 mg/kg PO QD for 7 days): ~65% | reduction in C26:0 LPC levels compared to vehicle controls (100 mg/kg PO QD for 7 days): about 75% | reduction in C26:0 LPC levels compared to vehicle controls (300 mg/kg PO QD for 7 days): about 85%
